The text below walks through data of PMC10287695, “Non-covalent inhibitors of thioredoxin glutathione reductase with schistosomicidal activity in vivo” (Nature Communications, 2023).

Values joined by “and” are separate entries in the source; they are usually repeats but may differ in a detail not shown here. Equal values may be shown once. Read-outs that look alike come from different tables or passages of the source.

The nature of series [1]: Pharmacokinetics, intraperitoneal administration. The class given is in vivo, Swiss Webster mice. The settings on record: for Plasma concentration, single animal / concentration at 0 h / concentration at 0.5 h / concentration at 1 h / concentration at 2 h: IP; for Plasma concentration, single animal / concentration at 0 h / concentration at 0.5 h / concentration at 1 h / concentration at 2 h / concentration at 30 min / concentration at 60 min / concentration at 120 min / plasma concentration: 100 mg/kg; for Plasma concentration, single animal: listed as 1 (8VP70). The protocol: All the mice were weighed and dosed intraperitoneally accordingly at 100 mg/kg body weight with freshly prepared 1 or 2.
Blood was collected by submandibular puncture into 1 mL Eppendorf tubes, the plasma was separated and stored in −80 °C until used. A 25 µl of mouse plasma was transferred into 1.5 ml centrifuge tube which was spiked with 2.5 µl of internal standard (IS) working standard solution […] to get final IS contraction of 250 ng/ml and the solution was vortexed. An aliquot of 75 µl of methanol/0.15 formic acid was added and gently vortexed for 2 min. The samples then centrifuged for 20 min at 4 °C and 15000 × g. A clear supernatant (50 µl) with added 50 µl mobile phase (reconstitution solution) from each extraction was then transferred into a 250 µl autosampler vial. A 3 µl aliquot of each sample was injected for LC-MSMS analysis.
The total run time of 2 min with an injection volume of 3 μl at column temperature 40 °C were efficient to achieve accepted results.
A Shimadzu LC20AD, Ultra Performance Liquid Chromatography (UPLC) system (Shimadzu Corporation, Kyoto, Japan) equipped with Shimadzu 8040 triple quadrupole (QqQ) mass analyzer (Shimadzu Corporation, Kyoto, Japan) with an electrospray ionization source (ESI) operated in the positive charge mode for the quantification of 1 and 2.

Another series concerns the target T1, TGR (Schistosoma mansoni, UniProt Q962Y6).
T1 construct: made in house
T1 sequence (Q962Y6 1-598): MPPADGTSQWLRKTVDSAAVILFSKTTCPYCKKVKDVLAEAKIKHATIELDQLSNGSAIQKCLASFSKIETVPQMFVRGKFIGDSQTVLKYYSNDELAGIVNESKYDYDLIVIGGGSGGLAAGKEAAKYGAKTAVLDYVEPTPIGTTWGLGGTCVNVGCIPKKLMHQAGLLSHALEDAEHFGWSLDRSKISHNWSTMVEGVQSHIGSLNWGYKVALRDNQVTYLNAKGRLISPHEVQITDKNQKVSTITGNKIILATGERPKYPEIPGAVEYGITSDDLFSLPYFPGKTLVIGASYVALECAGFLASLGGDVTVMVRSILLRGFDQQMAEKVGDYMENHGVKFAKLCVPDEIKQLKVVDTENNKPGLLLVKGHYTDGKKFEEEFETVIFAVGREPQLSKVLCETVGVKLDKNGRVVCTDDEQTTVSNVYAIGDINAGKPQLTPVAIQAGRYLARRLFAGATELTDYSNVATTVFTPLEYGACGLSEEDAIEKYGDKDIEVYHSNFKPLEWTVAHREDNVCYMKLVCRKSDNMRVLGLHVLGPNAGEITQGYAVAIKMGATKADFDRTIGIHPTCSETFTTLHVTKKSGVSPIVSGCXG
It is filed as biochemical, S. mansoni. The note with it: 6 hr preincubation.

What is called Cmax is the highest concentration seen after dosing. What is called half-life is the time in which the quantity being followed falls by half. `Cc1oc(-c2ccc3c(c2)OCO3)nc1CN[C@@H]1C[C@@H]2C[C@H]([C@H]1C)C2(C)C` [Compound 1]: the “Plasma concentration, single animal” value was 0.000 uM (2×) and 0.000 ug/mL (2×) in series [1] (0 Hour); 4.093 uM and 4.069 uM and 1.508 ug/mL and 1.499 ug/mL in series [1] (0.5 Hour); 3.040 uM and 3.641 uM and 1.120 ug/mL and 1.342 ug/mL in series [1] (1 Hour); 2.409 uM and 2.589 uM and 0.888 ug/mL and 0.954 ug/mL in series [1] (2 Hour). In addition, the concentration at 0 h in series [1] (male, Swiss Webster, mouse, plasma, ip, 0 Hour, read-out: Plasma concentration, Average) was 0 nM and 0 ng/mL; in series [1] (male, Swiss Webster, mouse, plasma, ip, 0 Hour, read-out: Plasma concentration, single animal), 0 nM and 0 ng/mL. The concentration at 0.5 h in series [1] (male, Swiss Webster, mouse, plasma, ip, 0.5 Hour, read-out: Plasma concentration, Average) was 4.11 µM and 1510 ng/mL; in series [1] (male, Swiss Webster, mouse, plasma, ip, 0.5 Hour, read-out: Plasma concentration, single animal), 4.16 µM and 1530 ng/mL. Also, the concentration at 1 h in series [1] (male, Swiss Webster, mouse, plasma, ip, 1 Hour, read-out: Plasma concentration, Average) is 3.28 µM and 1210 ng/mL; in series [1] (male, Swiss Webster, mouse, plasma, ip, 1 Hour, read-out: Plasma concentration, single animal), 3.16 µM and 1160 ng/mL. Moreover, the concentration at 2 h is 2.35 µM and 865 ng/mL in series [1] (male, Swiss Webster, mouse, plasma, ip, 2 Hour, read-out: Plasma concentration, Average); 2.05 µM and 754 ng/mL in series [1] (male, Swiss Webster, mouse, plasma, ip, 2 Hour, read-out: Plasma concentration, single animal). Moreover, the concentration at 30 min stood at 4.11 ± 0.047 µM in series [1] (male, Swiss Webster, mouse, plasma, ip, mice, 100 mg/kg i.p., 30 min) and 1510 ± 17 ng/mL in series [1] (male, Swiss Webster, mouse, plasma, ip, mice, intraperitoneal, 30 min). Also, the concentration at 60 min amounted to 3.28 ± 0.318 µM in series [1] (male, Swiss Webster, mouse, plasma, ip, mice, 100 mg/kg i.p., 60 min) and 1210 ± 117 ng/mL in series [1] (male, Swiss Webster, mouse, plasma, ip, mice, intraperitoneal, 60 min). Further, the concentration at 120 min in series [1] (male, Swiss Webster, mouse, plasma, ip, mice, 100 mg/kg i.p., 120 min) was determined as 2.35 ± 0.277 µM; in series [1] (male, Swiss Webster, mouse, plasma, ip, mice, intraperitoneal, 120 min) it was 865 ± 102 ng/mL. In series [1] (male, Swiss Webster, mouse, plasma, ip, mice, 100 mg/kg i.p., at 30 min), the highest level (Cmax) was 4.1 µM. Besides, the half-life in series [1] (male, Swiss Webster, mouse, plasma, ip, mice, 100 mg/kg i.p., estimated from the time points available) is approximately 1.5 h. In addition, the overt toxicity result in series [1] (mice, 100 mg/kg i.p.) is “no overt toxicity”. Moreover, the plasma concentration in series [1] (mice, 100 mg/kg i.p., 30 min) was determined as 4.1 µM; in series [1] (mice, 100 mg/kg i.p., 60 min) it was 3.3 µM; in series [1] (mice, 100 mg/kg i.p., 120 min) it was 2.4 µM.

Take `Cc1oc(-c2ccccc2)nc1CN[C@@H]1C[C@@H]2C[C@H]([C@H]1C)C2(C)C` [Compound 3]: the figures for the Vmax on TGR (35 µM inhibitor) and on TGR (50 µM inhibitor) were 0.011 ± 0.0002 ΔA412/min and 0.0096 ± 0.0002 ΔA412/min, respectively.
